Assay results: patent US8022072B2, “Azolylmethylidenehydrazine derivative and use thereof” (Kaken Pharmaceutical Co., Ltd., priority 2007, dated 2011)
≈ marks a conversion by molar mass, not a printed value.

Experiments:
[1] = system: Trichophyton mentagrophytes SM-110; assay: Antifungal activity evaluation test, MIC, Trichophyton mentagrophytes SM-110; format: cell-based; conditions: SM110, 168 h, Sabouraud Dextrose Broth, 30° C., 7 days, visual, read-out: MIC T. men. SM-110
Method: (§1) The minimum inhibitory concentration (MIC) for Trichophyton mentagrophytes, Trichophyton rubrum, and Malassezia furfur was measured according to the following procedure. • Test compound solution: A test compound was dissolved in dimethyl sulfoxide (DMSO) at a concentration of 5 mg/mL as a stock solution. […] Then, as a test medium, a fungal solution of Trichophyton species was 100-fold diluted with Sabouraud Dextrose Broth (Difco), and a fungal solution of Malassezia furfur IFO-0656 was 100-fold diluted with MU medium to give each inoculum (2×10^4 cells/mL). • Measurement of MIC of Trichophyton fungi: Sabouraud Dextrose Broth (Difco) was dispensed by 100 μL to a given well of a 96 well flat microplate. Then, a test compound solution (2 μL) was added, and the mixture was thoroughly mixed with a plate mixer. A fungal solution (100 μL) was inoculated and cultured at 30° C. for 7 days. The presence or absence of the cell growth was visually observed, and the minimum medicament concentration at which the cell growth was prevented was taken as MIC (μg/mL). • Measurement of MIC of Malassezia furfur: Since the urease activity of this fungus and the fungus growth rate are co-related, MIC was evaluated by the following method using urease activity as an index. MU medium was dispensed by 100 μL to a given well of a 96 well flat microplate. Then, a test compound solution (2 μL) was added, and the mixture was thoroughly mixed with a plate mixer. A fungal solution (100 μL) was inoculated and cultured at 30° C. The culture was stopped on day 4 or 5 of culture when the color tone of the MU medium changes from yellow to red in visual observation of the fungus growth in a well free of addition of a test substance. Then the plate was stirred until the fungus became uniform, and the urease activity was measured based on the measurement of absorbance at 550 nm using a plate reader.

[2] = system: Malassezia furfur IFO-0656; assay: Antifungal activity evaluation test, MIC by urease activity, Malassezia furfur IFO-0656; format: cell-based; conditions: IFO0656, 96 h, MU medium, 30° C., day 4 or 5, urease activity of 20% or below, read-out: MIC M. fur. IFO-0656
Method: as §1

[3] = system: Trichophyton mentagrophytes KD-04; assay: Antifungal activity evaluation test, MIC, Trichophyton mentagrophytes KD-04; format: cell-based; conditions: KD04, 168 h, Sabouraud Dextrose Broth, 30° C., 7 days, visual, read-out: MIC T. men. KD-04
Method: as §1

[4] = system: Trichophyton rubrum KD-107; assay: Antifungal activity evaluation test, MIC, Trichophyton rubrum KD-107; format: cell-based; conditions: KD107, 168 h, Sabouraud Dextrose Broth, 30° C., 7 days, visual, read-out: MIC T. rub. KD-107
Method: as §1

[5] = system: Trichophyton rubrum KD-101; assay: Antifungal activity evaluation test, MIC, Trichophyton rubrum KD-101; format: cell-based; conditions: KD101, 168 h, Sabouraud Dextrose Broth, 30° C., 7 days, visual, read-out: MIC T. rub. KD-101
Method: as §1

OVA-induced dermatitis = assay: Ovalbumin (OVA)-induced dermatitis model, ear edema; format: in vivo, male ICR mouse; set-up: key: ratio of compound's ear edema inhibition rate to FK506's (FK506 = 1.0); conditions: test compound 1 w/v % (FK506 0.1 w/v %), 20 μL applied to auricle, 24 hours after induction
Method: (§2) The test compound was adjusted to 1 w/v % when in use with a solvent (acetone:olive oil=1:1, v/v)) and put to use. FK506 (control substance) was adjusted to 0.1 w/v % and used.
Male ICR mouse was sensitized by the administration of 0.2 mL of OVA-hydroxide aluminum gel suspension to the abdominal cavity. After 14 days from the sensitization, the thickness of the right auricle was measured with a micrometer (pre-value). After the measurement, 20 μL of 0.5 μg/mL OVA challenge liquid (solvent was physiological saline) was subcutaneously administered to the inside of the auricle to induce ear edema. About 5 minutes after the administration of the challenge liquid, 20 μL of the test compound was applied to the outside of the auricle. After 24 hours from the induction of ear edema, the thickness of the right auricle was measured by a method similar to the pre-value (post-value). The difference between the post-value and the pre-value of ear edema by each test compound was determined, based on which the inhibition rate was calculated. The activity of each test compound was calculated with the ear edema inhibition rate of FK506 as 1.0 (ear edema inhibition rate of each test compound/ear edema inhibition rate of FK506).

TNCB-induced dermatitis = assay: 2,4,6-Trinitrochlorobenzene (TNCB)-induced dermatitis model, ear edema; format: in vivo, male BALB/c mouse; conditions: test compound 1 w/v % (FK506 0.1 w/v %), 20 μL applied to auricle, 24 hours after induction
Method: as §2
The fur on the abdomen of male BALB/c mouse was shaved with a hair clipper, and 100 μL of 7 w/v % TNCB sensitizing liquid (solvent was acetone:olive oil=4:1, v/v) was applied. Six days after the sensitization, the thickness of the right auricle was measured with a micrometer (pre-value). After the measurement, 10 μL of 1 w/v % TNCB challenge liquid (solvent was acetone:olive oil=1:9, v/v) was applied to the inside of the right auricle to induce ear edema. About 5 minutes after the application of the challenge liquid, 20 μL of the test compound was applied to the outside of the auricle.
After 24 hours from the induction of ear edema, the thickness of the right auricle was measured by a method similar to the pre-value (post-value). The difference between the post-value and the pre-value of ear edema by each test compound was determined, based on which the inhibition rate was calculated. The activity of each test compound was calculated with the ear edema inhibition rate of FK506 as 1.0 (ear edema inhibition rate of each test compound/ear edema inhibition rate of FK506).

[6] = system: Trichophyton mentagrophytes KD-04; assay: Influence of keratin addition on anti-Trichophyton activity; format: cell-based; conditions: Trichophyton mentagrophytes, KD04, 168 h, 30° C., 7 days
Method: The MIC increase rate by the addition of keratin to a medium was measured by the following procedure. • Test compound solution: A test compound was dissolved in dimethyl sulfoxide (DMSO) at a concentration of 5 mg/mL as a stock solution. Diluting this solution with DMSO, a 2-fold dilution series was prepared. • Test strain: Trichophyton mentagrophytes KD-04 was used. Preparation of Fungal Inoculum: the Above-Mentioned Strain was suspended in 0.05% Tween 80-containing physiological saline, and adjusted to a fungus concentration of 2×10^6 cells/mL using a counting chamber. […] The physiological saline was removed, and the mixture was further washed once with physiological saline (3 mL). The physiological saline was removed, and a test compound solution (10 μL) and Sabouraud Dextrose Broth (Difco) (500 μL) were added to keratin, and the mixture was sufficiently stirred. Then, inoculum (500 μL) of T. mentagrophytes KD-04 was added, and the mixture was cultured at 30° C. for 7 days. As a comparison control, an experiment similar to the above was performed under conditions free of keratin addition.

[7] = T. mentagrophytes KD-04, free of keratin addition, read-out: MIC SDB alone
[8] = T. mentagrophytes KD-04, keratin 50 mg added, read-out: MIC SDB + keratin

CN(C)N=C(c1ccccc1CCc1ccccc1)n1ccnc1 [Compound No. 6, N′-[1-imidazol-1-yl-1-(2-phenethylphenyl)methylidene]-N,N-dimethylhydrazine]
MIC [1]: 0.1 µg/mL (≈ 0.314 µM) | MIC [2]: 0.78 µg/mL (≈ 2.45 µM) | MIC [3]: 0.05 µg/mL (≈ 0.157 µM) | MIC [4]: 0.05 µg/mL (≈ 0.157 µM) | MIC [5]: 0.1 µg/mL (≈ 0.314 µM) | OVA-induced dermatitis, with ear edema inhibition rate of FK506 as 1.0 (OVA-induced dermatitis): 1.4 | TNCB-induced dermatitis, with ear edema inhibition rate of FK506 as 1.0 (TNCB-induced dermatitis): 0.7

CN(C)N=C(c1ccccc1CCCOc1ccccc1)n1ccnc1 [Compound No. 9, N′-[1-imidazol-1-yl-1-[2-(3-phenoxypropyl)phenyl]methylidene]-N,N-dimethylhydrazine]
MIC [1]: 0.2 µg/mL (≈ 0.574 µM) | MIC [2]: 0.2 µg/mL (≈ 0.574 µM) | MIC [3]: 0.05 µg/mL (≈ 0.143 µM) | MIC [4]: 0.05 µg/mL (≈ 0.143 µM) | MIC [5]: 0.05 µg/mL (≈ 0.143 µM) | OVA-induced dermatitis, with ear edema inhibition rate of FK506 as 1.0 (OVA-induced dermatitis): 1.2 | TNCB-induced dermatitis, with ear edema inhibition rate of FK506 as 1.0 (TNCB-induced dermatitis): 0.7

COc1ccc(COc2ccccc2C(=NN(C)C)n2ccnc2)cc1 [Compound No. 52, N′-[1-imidazol-1-yl-1-[2-(4-methoxybenzyloxy)phenyl]methylidene]-N,N-dimethylhydrazine]
MIC [1]: 0.39 µg/mL (≈ 1.11 µM) | MIC [2]: 0.39 µg/mL (≈ 1.11 µM) | MIC [6, 7]: 0.1 µg/mL (≈ 0.285 µM) | MIC [6, 8]: 0.2 µg/mL | MIC [3]: 0.2 µg/mL (≈ 0.571 µM) | MIC [4]: 0.05 µg/mL (≈ 0.143 µM) | MIC [5]: 0.05 µg/mL (≈ 0.143 µM) | OVA-induced dermatitis, with ear edema inhibition rate of FK506 as 1.0 (OVA-induced dermatitis): 1.1 | TNCB-induced dermatitis, with ear edema inhibition rate of FK506 as 1.0 (TNCB-induced dermatitis): 0.7

CN(C)N=C(c1ccccc1OCCOc1ccccc1)n1ccnc1 [Compound No. 66, N′-[1-imidazol-1-yl-1-[2-(2-phenoxyethoxy)phenyl]methylidene]-N,N-dimethylhydrazine]
MIC [1]: 0.2 µg/mL (≈ 0.571 µM) | MIC [2]: 0.39 µg/mL (≈ 1.11 µM) | MIC [6, 7]: 0.05 µg/mL (≈ 0.143 µM) | MIC [6, 8]: 0.1 µg/mL | MIC [3]: 0.1 µg/mL (≈ 0.285 µM) | MIC [4]: 0.05 µg/mL (≈ 0.143 µM) | MIC [5]: 0.1 µg/mL (≈ 0.285 µM) | OVA-induced dermatitis, with ear edema inhibition rate of FK506 as 1.0 (OVA-induced dermatitis): 1.1 | TNCB-induced dermatitis, with ear edema inhibition rate of FK506 as 1.0 (TNCB-induced dermatitis): 0.8

CN(C)N=C(c1ccccc1OCCCCOc1ccccc1)n1ccnc1 [Compound No. 71, N′-[1-imidazol-1-yl-1-[2-(4-phenoxybutoxy)phenyl]methylidene]-N,N-dimethylhydrazine]
MIC [1]: 0.1 µg/mL (≈ 0.264 µM) | MIC [2]: 0.05 µg/mL (≈ 0.132 µM) | MIC [3]: 0.05 µg/mL (≈ 0.132 µM) | MIC [4]: 0.025 µg/mL (≈ 0.0661 µM) | MIC [5]: 0.05 µg/mL (≈ 0.132 µM) | OVA-induced dermatitis, with ear edema inhibition rate of FK506 as 1.0 (OVA-induced dermatitis): 0.9 | TNCB-induced dermatitis, with ear edema inhibition rate of FK506 as 1.0 (TNCB-induced dermatitis): 0.9

CN(C)N=C(c1sccc1OCCOc1ccccc1)n1ccnc1 [Compound No. 101, N′-[1-imidazol-1-yl-1-[3-(2-phenoxyethoxy)thiophen-2-yl]methylidene]-N,N-dimethylhydrazine]
MIC [1]: 0.2 µg/mL (≈ 0.561 µM) | MIC [2]: 0.2 µg/mL (≈ 0.561 µM) | MIC [3]: 0.05 µg/mL (≈ 0.14 µM) | MIC [4]: 0.05 µg/mL (≈ 0.14 µM) | MIC [5]: 0.05 µg/mL (≈ 0.14 µM) | OVA-induced dermatitis, with ear edema inhibition rate of FK506 as 1.0 (OVA-induced dermatitis): 1.4 | TNCB-induced dermatitis, with ear edema inhibition rate of FK506 as 1.0 (TNCB-induced dermatitis): 0.8

CCN(C)N=C(c1ccccc1OCCOc1ccccc1)n1ccnc1 [Compound No. 114, N-ethyl-N′-[1-imidazol-1-yl-1-[2-(2-phenoxyethoxy)phenyl]methylidene]-N-methylhydrazine]
MIC [1]: 0.39 µg/mL (≈ 1.07 µM) | MIC [2]: 0.2 µg/mL (≈ 0.549 µM) | MIC [3]: 0.2 µg/mL (≈ 0.549 µM) | MIC [4]: 0.05 µg/mL (≈ 0.137 µM) | MIC [5]: 0.1 µg/mL (≈ 0.274 µM) | OVA-induced dermatitis, with ear edema inhibition rate of FK506 as 1.0 (OVA-induced dermatitis): 0.9 | TNCB-induced dermatitis, with ear edema inhibition rate of FK506 as 1.0 (TNCB-induced dermatitis): 0.7

CCCCCOc1ccccc1C(=NN1CCCC1)n1ccnc1 [Compound No. 157, [1-imidazol-1-yl-1-(2-pentyloxyphenyl)methylidene]pyrrolidin-1-ylamine]
MIC [1]: 0.1 µg/mL (≈ 0.306 µM) | MIC [2]: 0.2 µg/mL (≈ 0.613 µM) | MIC [3]: 0.05 µg/mL (≈ 0.153 µM) | MIC [4]: 0.05 µg/mL (≈ 0.153 µM) | MIC [5]: 0.05 µg/mL (≈ 0.153 µM) | OVA-induced dermatitis, with ear edema inhibition rate of FK506 as 1.0 (OVA-induced dermatitis): 1.3 | TNCB-induced dermatitis, with ear edema inhibition rate of FK506 as 1.0 (TNCB-induced dermatitis): 0.8

c1ccc(OCCOc2ccccc2C(=NN2CCCC2)n2ccnc2)cc1 [Compound No. 161, [1-imidazol-1-yl-1-[2-(2-phenoxyethoxy)phenyl]methylidene]pyrrolidin-1-ylamine]
MIC [1]: 0.39 µg/mL (≈ 1.04 µM) | MIC [2]: 0.39 µg/mL (≈ 1.04 µM) | MIC [3]: 0.2 µg/mL (≈ 0.531 µM) | MIC [4]: 0.1 µg/mL (≈ 0.266 µM) | MIC [5]: 0.1 µg/mL (≈ 0.266 µM) | OVA-induced dermatitis, with ear edema inhibition rate of FK506 as 1.0 (OVA-induced dermatitis): 0.9 | TNCB-induced dermatitis, with ear edema inhibition rate of FK506 as 1.0 (TNCB-induced dermatitis): 0.7

C=CC[C@@H]1/C=C(\C)C[C@H](C)C[C@H](OC)[C@H]2O[C@@](O)(C(=O)C(=O)N3CCCC[C@H]3C(=O)O[C@H](/C(C)=C/[C@@H]3CC[C@@H](O)[C@H](OC)C3)[C@H](C)[C@@H](O)CC1=O)[C@H](C)C[C@@H]2OC [FK506, tacrolimus, reference compound]
OVA-induced dermatitis, with ear edema inhibition rate of FK506 as 1.0 (OVA-induced dermatitis): 1.0 | TNCB-induced dermatitis, with ear edema inhibition rate of FK506 as 1.0 (TNCB-induced dermatitis): 1.0
